Read-outs that look alike come from different tables or passages of the source.
Columns and labels:
[1] = system: MYC protein expression in MCF-7 breast cancer cells; assay: Western blotting of MYC protein level in MCF-7 cells; type: cell-based, human; conditions: Homo sapiens, MCF7; western blotting, MCF-7 cells, 0.5, 1, 2, and 4 μM, 24 hours; read-out: MYC Inhibition
Summary of the method: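 MCF-7 cells were exposed to compounds at 0.5, 1, 2 and 4 μM for 24 hours at 37° C. MYC was detected by immunoblot with ECL, using rabbit anti-MYC (1:1000) and anti-GAPDH (1:2000) as loading control.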

NCI-60 cancer cell lines = assay: NCI-60 cancer cell line drug screen (GI50, MGM); type: cell-based, human; conditions: Homo sapiens
Protocol: Cancer cells were incubated with the test compounds at five concentrations ranging from 100 μM to 10 nM for 48 h. […] The approximate average of GI50 values across the entire panel of NCI-60 cancer cell lines for each compound was recorded as the MGM value.

Q: For `COc1cc2c3c(n(CCCn4ccnc4)c(=O)c2cc1OC)-c1cc2c(cc1C3=O)OCO2` [Compound 42], which minimal effective concentration [1] is on record?
A: Its minimal effective concentration is 0.5 to 1 µM.

Q: And the GI50 (NCI-60 cancer cell lines; 786-0, Renal Cancer, 786-0, read-out: Antiproliferative Activities [GI50 (μM)])?
A: The GI50 was less than 0.01 µM.

Q: What about the GI50 (NCI-60 cancer cell lines; A498, Renal Cancer, A498, read-out: Antiproliferative Activities [GI50 (μM)]) of the same molecule?
A: The GI50 was 7.17 µM.

Q: What about the GI50 (NCI-60 cancer cell lines; A549, Non-Small Cell Lung Cancer, A549/ATCC, read-out: Antiproliferative Activities [GI50 (μM)]) of the same molecule?
A: The GI50 was 10.5 µM.

Q: And the GI50 (NCI-60 cancer cell lines; ACHN, Renal Cancer, ACHN, read-out: Antiproliferative Activities [GI50 (μM)])?
A: Its GI50 is less than 0.01 µM.

Q: What about the GI50 (NCI-60 cancer cell lines; CAKI-1, Renal Cancer, CAKI-1, read-out: Antiproliferative Activities [GI50 (μM)]) of the same molecule?
A: The GI50 was 0.32 µM.

Q: And the GI50 (NCI-60 cancer cell lines; CCRF-CEM, Leukemia, CCRF-CEM, read-out: Antiproliferative Activities [GI50 (μM)])?
A: The GI50 was less than 0.01 µM.

Q: And the GI50 (NCI-60 cancer cell lines; COLO 205, Colon Cancer, COLO 205, read-out: Antiproliferative Activities [GI50 (μM)])?
A: Its GI50 is greater than 100 µM.

Q: What about the GI50 (NCI-60 cancer cell lines; DU-145, Prostate Cancer, DU-145, read-out: Antiproliferative Activities [GI50 (μM)]) of the same molecule?
A: The GI50 was less than 0.01 µM.

Q: What about the GI50 (NCI-60 cancer cell lines; EKVX, Non-Small Cell Lung Cancer, EKVX, read-out: Antiproliferative Activities [GI50 (μM)]) of the same molecule?
A: The GI50 was 70.7 µM.

Q: And the GI50 (NCI-60 cancer cell lines; HCC 2998, Colon Cancer, HCC-2998, read-out: Antiproliferative Activities [GI50 (μM)])?
A: Its GI50 is 29.3 µM.

Q: And the GI50 (NCI-60 cancer cell lines; HCT-15, Colon Cancer, HCT-15, read-out: Antiproliferative Activities [GI50 (μM)])?
A: The GI50 was greater than 100 µM.

Q: And the GI50 (NCI-60 cancer cell lines; HCT-116, Colon Cancer, HCT-116, read-out: Antiproliferative Activities [GI50 (μM)])?
A: Its GI50 is 0.17 µM.

Q: And the GI50 (NCI-60 cancer cell lines; HL-60, read-out: Antiproliferative Activities [GI50 (μM)])?
A: Its GI50 is 0.02 µM.

Q: What about the GI50 (NCI-60 cancer cell lines; HOP-62, Non-Small Cell Lung Cancer, HOP-62, read-out: Antiproliferative Activities [GI50 (μM)]) of the same molecule?
A: The GI50 was less than 0.01 µM.

Q: And the GI50 (NCI-60 cancer cell lines; HOP-92, Non-Small Cell Lung Cancer, HOP-92, read-out: Antiproliferative Activities [GI50 (μM)])?
A: Its GI50 is 0.19 µM.

Q: And the GI50 (NCI-60 cancer cell lines; HT-29, Colon Cancer, HT29, read-out: Antiproliferative Activities [GI50 (μM)])?
A: Its GI50 is greater than 100 µM.

Q: And the GI50 (NCI-60 cancer cell lines; Hs-578T, Breast Cancer, HS 578T, read-out: Antiproliferative Activities [GI50 (μM)])?
A: Its GI50 is 54.2 µM.

Q: And the GI50 (NCI-60 cancer cell lines; IGROV-1, Ovarian Cancer, IGROV1, read-out: Antiproliferative Activities [GI50 (μM)])?
A: The GI50 was 6.72 µM.

Q: And the GI50 (NCI-60 cancer cell lines; K562, Leukemia, K-562, read-out: Antiproliferative Activities [GI50 (μM)])?
A: Its GI50 is 1.49 µM.

Q: And the GI50 (NCI-60 cancer cell lines; KM12, Colon Cancer, KM12, read-out: Antiproliferative Activities [GI50 (μM)])?
A: The GI50 was greater than 100 µM.

Q: And the GI50 (NCI-60 cancer cell lines; LOX IMVI, Melanoma, LOX IMVI, read-out: Antiproliferative Activities [GI50 (μM)])?
A: Its GI50 is 0.06 µM.

Q: And the GI50 (NCI-60 cancer cell lines; Leukemia, SR, read-out: Antiproliferative Activities [GI50 (μM)])?
A: The GI50 was less than 0.01 µM.

Q: What about the GI50 (NCI-60 cancer cell lines; MCF7, Breast Cancer, MCF7, read-out: Antiproliferative Activities [GI50 (μM)]) of the same molecule?
A: Its GI50 is less than 0.01 µM.

Q: What about the GI50 (NCI-60 cancer cell lines; MDA-MB-231, Breast Cancer, MDA-MB-231/ATCC, read-out: Antiproliferative Activities [GI50 (μM)]) of the same molecule?
A: Its GI50 is 77.8 µM.

Q: And the GI50 (NCI-60 cancer cell lines; MDA-MB-435, Melanoma, MDA-MB-435, read-out: Antiproliferative Activities [GI50 (μM)])?
A: Its GI50 is greater than 100 µM.

Q: And the GI50 (NCI-60 cancer cell lines; MOLT-4, Leukemia, MOLT-4, read-out: Antiproliferative Activities [GI50 (μM)])?
A: The GI50 was less than 0.01 µM.

Q: What about the GI50 (NCI-60 cancer cell lines; Malme-3M, Melanoma, MALME-3M, read-out: Antiproliferative Activities [GI50 (μM)]) of the same molecule?
A: The GI50 was 1.6 µM.

Q: What about the GI50 (NCI-60 cancer cell lines; Melanoma, M14, read-out: Antiproliferative Activities [GI50 (μM)]) of the same molecule?
A: Its GI50 is less than 0.01 µM.

Q: And the GI50 (NCI-60 cancer cell lines; NCI-H23, Non-Small Cell Lung Cancer, NCI-H23, read-out: Antiproliferative Activities [GI50 (μM)])?
A: The GI50 was 0.09 µM.

Q: What about the GI50 (NCI-60 cancer cell lines; NCI-H226, Non-Small Cell Lung Cancer, NCI-H226, read-out: Antiproliferative Activities [GI50 (μM)]) of the same molecule?
A: The GI50 was 0.37 µM.

Q: What about the GI50 (NCI-60 cancer cell lines; NCI-H322M, Non-Small Cell Lung Cancer, NCI-H322M, read-out: Antiproliferative Activities [GI50 (μM)]) of the same molecule?
A: The GI50 was greater than 100 µM.

Q: What about the GI50 (NCI-60 cancer cell lines; NCI-H460, Non-Small Cell Lung Cancer, NCI-H460, read-out: Antiproliferative Activities [GI50 (μM)]) of the same molecule?
A: Its GI50 is less than 0.01 µM.

Q: And the GI50 (NCI-60 cancer cell lines; NCI-H522, Non-Small Cell Lung Cancer, NCI-H522, read-out: Antiproliferative Activities [GI50 (μM)])?
A: The GI50 was less than 0.01 µM.

Q: And the GI50 (NCI-60 cancer cell lines; OVCAR-3, Ovarian Cancer, OVCAR-3, read-out: Antiproliferative Activities [GI50 (μM)])?
A: Its GI50 is 16.4 µM.

Q: What about the GI50 (NCI-60 cancer cell lines; OVCAR-4, Ovarian Cancer, OVCAR-4, read-out: Antiproliferative Activities [GI50 (μM)]) of the same molecule?
A: Its GI50 is greater than 100 µM.

Q: And the GI50 (NCI-60 cancer cell lines; OVCAR-5, Ovarian Cancer, OVCAR-5, read-out: Antiproliferative Activities [GI50 (μM)])?
A: The GI50 was greater than 100 µM.

Q: And the GI50 (NCI-60 cancer cell lines; OVCAR-8, Ovarian Cancer, OVCAR-8, read-out: Antiproliferative Activities [GI50 (μM)])?
A: The GI50 was 1.03 µM.

Q: And the GI50 (NCI-60 cancer cell lines; Ovarian Cancer, NCl/ADR-RES, read-out: Antiproliferative Activities [GI50 (μM)])?
A: The GI50 was 0.35 µM.

Q: What about the GI50 (NCI-60 cancer cell lines; Prostate Cancer, PC-3, read-out: Antiproliferative Activities [GI50 (μM)]) of the same molecule?
A: Its GI50 is 34.9 µM.

Q: What about the GI50 (NCI-60 cancer cell lines; RPMI-8226, Leukemia, RPMI-8226, read-out: Antiproliferative Activities [GI50 (μM)]) of the same molecule?
A: The GI50 was less than 0.01 µM.

Q: And the GI50 (NCI-60 cancer cell lines; RXF 393, Renal Cancer, RXF 393, read-out: Antiproliferative Activities [GI50 (μM)])?
A: Its GI50 is 8 µM.

Q: What about the GI50 (NCI-60 cancer cell lines; Renal Cancer, U0-31, read-out: Antiproliferative Activities [GI50 (μM)]) of the same molecule?
A: Its GI50 is 0.03 µM.

Q: What about the GI50 (NCI-60 cancer cell lines; SF-295, CNS Cancer, SF-295, read-out: Antiproliferative Activities [GI50 (μM)]) of the same molecule?
A: Its GI50 is less than 0.01 µM.

Q: What about the GI50 (NCI-60 cancer cell lines; SF-539, CNS Cancer, SF-539, read-out: Antiproliferative Activities [GI50 (μM)]) of the same molecule?
A: Its GI50 is less than 0.01 µM.

Q: What about the GI50 (NCI-60 cancer cell lines; SK-MEL-2, Melanoma, SK-MEL-2, read-out: Antiproliferative Activities [GI50 (μM)]) of the same molecule?
A: The GI50 was greater than 100 µM.

Q: What about the GI50 (NCI-60 cancer cell lines; SK-MEL-5, Melanoma, SK-MEL-5, read-out: Antiproliferative Activities [GI50 (μM)]) of the same molecule?
A: Its GI50 is 0.22 µM.

Q: And the GI50 (NCI-60 cancer cell lines; SK-MEL-28, Melanoma, SK-MEL-28, read-out: Antiproliferative Activities [GI50 (μM)])?
A: The GI50 was greater than 100 µM.

Q: What about the GI50 (NCI-60 cancer cell lines; SK-OV-3, Ovarian Cancer, SK-OV-3, read-out: Antiproliferative Activities [GI50 (μM)]) of the same molecule?
A: The GI50 was less than 0.01 µM.

Q: And the GI50 (NCI-60 cancer cell lines; SN12C, Renal Cancer, SN12C, read-out: Antiproliferative Activities [GI50 (μM)])?
A: The GI50 was less than 0.01 µM.

Q: What about the GI50 (NCI-60 cancer cell lines; SNB-19, CNS Cancer, SNB-19, read-out: Antiproliferative Activities [GI50 (μM)]) of the same molecule?
A: The GI50 was less than 0.01 µM.

Q: And the GI50 (NCI-60 cancer cell lines; SNB-75, CNS Cancer, SNB-75, read-out: Antiproliferative Activities [GI50 (μM)])?
A: The GI50 was 0.23 µM.

Q: And the GI50 (NCI-60 cancer cell lines; SW-620, Colon Cancer, SW-620, read-out: Antiproliferative Activities [GI50 (μM)])?
A: The GI50 was 0.06 µM.

Q: And the GI50 (NCI-60 cancer cell lines; T47D, Breast Cancer, T-47D, read-out: Antiproliferative Activities [GI50 (μM)])?
A: Its GI50 is less than 0.01 µM.

Q: What about the GI50 (NCI-60 cancer cell lines; TK-10, Renal Cancer, TK-10, read-out: Antiproliferative Activities [GI50 (μM)]) of the same molecule?
A: The GI50 was 73.7 µM.

Q: What about the GI50 (NCI-60 cancer cell lines; U-251, CNS Cancer, U251, read-out: Antiproliferative Activities [GI50 (μM)]) of the same molecule?
A: The GI50 was less than 0.01 µM.

Q: And the GI50 (NCI-60 cancer cell lines; UACC-62, Melanoma, UACC-62, read-out: Antiproliferative Activities [GI50 (μM)])?
A: Its GI50 is less than 0.01 µM.

Q: And the GI50 (NCI-60 cancer cell lines; UACC-257, Melanoma, UACC-257, read-out: Antiproliferative Activities [GI50 (μM)])?
A: The GI50 was greater than 100 µM.

From US20210382058A1, “PATIENT SELECTION FOR TREATMENT OF MYC POSITIVE CANCERS WITH INDENOISOQUINOLINES” (Purdue Research Foundation, priority 2020, published 2021)
